Data taken from patent US12692274B2, “Tetrahydroisoquinoline derivatives for the treatment of red blood disorders and inflammatory diseases” (Sanofi, priority 2020, dated 2026).
Where “and” joins values, the source holds several entries; their conditions need not be identical. Equal values may be shown once.

What was measured:
[1] = system: NQO1 activation in BEAS-2B cells; assay: BEAS-2B cellular MTT assay of NQO1 activation, 0% HSA; format: cell-based
Outline: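 For the 0% HSA condition, cells were seeded into collagen plates in HSA-free medium. Culture was BEAS-2B in BEBM plus BEGM SingleQuots lacking GA-1000, held under 70% confluence, at a seeding density reaching 95-100% confluence by 48 h.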

[2] = system: NQO1 activation in BEAS-2B cells; assay: BEAS-2B cellular MTT assay of NQO1 activation, 0.3% HSA; format: cell-based
Procedure: The growth rate of the BEAS-2B cells changed based on the lot of BEGM SingleQuots in the BEGM media. The cell growth rate was determined for each lot of SingleQuots. Ideally, cells were thawed into media with the new lot of SingleQuots and grown for two passages before testing; however, growing an active culture in the new lot of media for two to three passages before testing was also acceptable. Until the cell growth rate was determined, cells were seeded at different densities (cells/cm^2) in multiple tissue culture flasks in order to avoid the cells becoming more than 70% confluent. Cells should not go above 70% confluent as the cells differentiate when they become confluent. After the cells were grown in the new lot of media as described above, the number of cells per well needed to seed in the collagen plates was determined by seeding different numbers of cells per well and incubating for 48 hours. Cell confluency was checked after 48 hours and a cell number that results in just below to just above confluency was chosen for future plate seeding. Cell confluency in the assay plate was 95-100% confluent after 48 hours.
Cell media consists of BEBM basal media with the BEGM SingleQuots added. SingleQuots vials were thawed in the tissue culture hood, and GA-1000 (Gentamicin-Amphotericin) was not added.
If complete media was to be used immediately, BEBM basal media was warmed to room temperature in the hood, but not as high as 37° C. When the media was made for future use, SingleQuots were added to cold BEBM. One at a time, the SingleQuots components (except GA-1000) were added to the BEBM media. After removal of each component from the vial, the vial was rinsed with 0.5-1 mL of BEBM (depending on the volume the vial could hold) and added to the bottle of BEBM. Once all components were added, the label that comes with the SingleQuots kit was put on the bottle of media and the date was recorded. The bottle of media was mixed by gentle shaking. The media was not filtered. This media was stored at 4° C., with any leftover media disposed of one month after the date the SingleQuots were added.
BEAS-2B Cell Splitting Protocol:
First, Trypsin was warmed to 37° C. in the water bath. The media was then warmed to room temperature by letting it sit in the tissue culture hood, but not as high as 37° C. The media was aspirated from flask(s) and the flask(s) were washed with PBS. From 1 to 1.5 mL of warm trypsin were added to each flask and incubated at 37° C. until cells came off the flask on their own (~8-10 minutes), with no vigorous tapping on the flask to detach the cells.
Media was added to each flask to a total volume of 8-10 mL per flask and transferred to 15 mL conical tube(s). The cells were spun down at 120 g for 5 minutes, level 5 brake. The cells can be spun down between 100 and 150 g. Next the media was aspirated and the cell pellet was resuspended in fresh media by pipetting up and down and flicking the tube side to side. Any clumps of cells that remained were allowed to settle to the bottom of the tube before the top suspension was transferred into another tube, leaving about 1 mL of media in the original tube. The 1 mL of media and cell clumps were mixed with a single channel p1000 pipette, and any remaining clumps were removed before adding the cells in suspension to the other tube. The suspension was mixed with a pipette, an aliquot was removed, and the cells were counted. The amount of cells/cm^2 desired was calculated and the required volume of cells was added to tissue culture flasks. For example, use of SingleQuots with ~6000 cells/cm^2 was appropriate for a three day incubation and ~3000 cells/cm^2 for a five day incubation. Optimal cell density differed depending on lot of SingleQuots. The flasks were incubated at 37° C. in 5% CO2.
Day One: Seeding BEAS-2B Cells in Collagen Plates:
Plate(s) were either seeded with 0.3% or 0% HSA. While the protocol was similar for both conditions any differences are noted herein below. […]

[3] = target: HIS-Keap1 full length / Biotin-Nrf2 (16-mer) (Homo sapiens, UniProt Q14145); assay: biochemical
Sequence of HIS-Keap1 full length / Biotin-Nrf2 (16-mer) (Q14145 whole entry): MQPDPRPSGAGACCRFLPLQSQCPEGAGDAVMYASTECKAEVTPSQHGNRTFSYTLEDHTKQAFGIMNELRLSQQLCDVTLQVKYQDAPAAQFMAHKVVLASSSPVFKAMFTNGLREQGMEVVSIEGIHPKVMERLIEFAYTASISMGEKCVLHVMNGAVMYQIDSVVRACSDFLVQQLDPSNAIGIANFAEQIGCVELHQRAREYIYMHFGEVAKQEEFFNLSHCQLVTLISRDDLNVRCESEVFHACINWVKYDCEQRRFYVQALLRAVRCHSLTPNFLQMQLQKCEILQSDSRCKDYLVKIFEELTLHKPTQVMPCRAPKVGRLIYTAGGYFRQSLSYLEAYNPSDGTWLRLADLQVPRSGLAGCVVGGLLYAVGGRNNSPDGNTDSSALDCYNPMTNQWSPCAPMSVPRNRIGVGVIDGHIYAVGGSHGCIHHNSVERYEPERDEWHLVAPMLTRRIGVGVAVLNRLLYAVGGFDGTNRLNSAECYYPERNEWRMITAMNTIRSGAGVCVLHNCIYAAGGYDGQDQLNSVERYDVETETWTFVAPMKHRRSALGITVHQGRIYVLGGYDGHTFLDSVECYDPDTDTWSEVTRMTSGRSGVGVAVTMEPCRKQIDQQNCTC

[4] = Homo sapiens, serum free, read-out: BEAS EC50 (nM) serum free
[5] = Homo sapiens, BEAS+, read-out: BEAS+ EC50
[6] = Homo sapiens, Serum Free W, read-out: BEAS EC50 (nM) Serum Free W
[7] = Serum Free W, read-out: BEAS EC50 (nM) Serum Free W
[8] = BEAS+ W, read-out: BEAS+ W EC50
[9] = Homo sapiens, BEAS+ W, read-out: BEAS+ W EC50
[10] = serum free, read-out: BEAS EC50 (nM) serum free

| Compound | EC50 [1, 4] [nM] | EC50 [2, 5] [nM] | IC50 [3] | EC50 [1, 6] [nM] | EC50 [1, 7] [nM] | EC50 [2, 8] | EC50 [2, 9] [nM] | EC50 [1, 10] [nM] | EC50 ([2]; BEAS+, read-out: BEAS+ EC50) [nM] |
| --- | --- | --- | --- | --- | --- | --- | --- | --- | --- |
| C[C@H](C(=O)O)[C@@H]1c2ccc(nc2)OCCCCCc2cc(F)c(c(F)c2)C(=O)N2CCc3ccc1cc3C2 [Compound 162] | 0.6 | 0.8 | 2.1 nM and 2 nM |  |  |  |  |  |  |
| C[C@@H](C(=O)O)[C@H]1c2ccc(nc2)OCC/C=C/Cc2ccc(cc2)C(=O)N2CCc3ccc1cc3C2 [Compound 66] |  |  | 31.9 nM and 29.5 nM | 20.6 | 27.6 | 55.6 nM | 39.3 |  |  |
| Cc1c2ccc3c1nnn3CCCCCc1cnc3c(c1)cc(n3C)C(=O)N1CCc3ccc(cc3C1)[C@@H]2CC(=O)O [Compound 112] |  |  | 0.3 nM | 2.9 | 2.7 | 25.5 nM | 23 |  |  |
| O=C(O)CC1c2ccc(nc2)OCCCCCc2cnc(nc2)C(=O)N2CCc3ccc1cc3C2 (stereo not shown) [Compound 196] | > 10000 | > 10000 | 130 nM and 116 nM |  |  |  |  |  |  |
| Cc1c2cnc3c1nnn3CCCCCc1ccc(c(F)c1)C(=O)N1CCc3ccc(cc3C1)C2CC(=O)O (stereo not shown) [Compound 137] | 1.9 | 1.9 | 0.3 nM |  |  |  |  | 1.8 | 2.8 |
| Cc1c2ccc3c1nnn3CCCCc1ccc3ccc(cc3c1)C(=O)N1CCc3ccc(cc3C1)C2CC(=O)O (stereo not shown) [Compound 390] |  | 3350 | 5.1 nM and 5.6 nM |  |  |  |  |  | 5770 |
| Cc1c2ccc3c1nnn3CCCCCOc1ccc(cc1)C(=O)N1CCc3ccc(cc3C1)[C@@H]2[C@@H](C)C(=O)O [Compound 118] |  |  | 0.4 nM | 2.5 | 4.2 | 4.4 nM and 3.6 nM and 6.5 nM | 3.8 |  |  |
| Cc1cc2cc3c1CCN(C3)C(=O)c1ccc(cc1)CCCCCn1nnc3c(C)c(cnc31)C2CC(=O)O (stereo not shown) [Compound 105] |  |  | 0.8 nM | 3.9 | 4.2 | 9.1 nM | 11.6 |  |  |
| Cc1c2ccc3c1nnn3CCCCCc1ccc(cc1)C(=O)N1CCc3ccc(cc3C1)[C@H]2[C@@H](C)C(=O)O [Compound 130] |  |  | 0.6 nM and 0.4 nM |  |  | 0.5 nM and 0.7 nM | < 0.5 |  |  |
| O=C(O)CC1c2ccc(nc2)OCCCCOc2cc(F)c(c(F)c2)C(=O)N2CCc3ccc1cc3C2 (stereo not shown) [Compound 210] | 482 | 1020 | 3.7 nM and 4 nM |  |  |  |  | 475 | 845 |
| Cc1c2ccc3c1nnn3CCCCCCc1ccc3c(c1)cc(n3CCCF)C(=O)N1CCc3ccc(cc3C1)[C@@H]2CC(=O)O [Compound 69] |  |  | 0.9 nM and 0.7 nM | 7.7 | 9 | 549 nM | 494 |  |  |
| Cc1c2ccc3c1nnn3CCCOCCOc1cc(F)c(c(F)c1)C(=O)N1CCc3ccc(cc3C1)[C@@H]2[C@H](C)C(=O)O [Compound 366] | 580 | 1070 | 5.6 nM and 5.3 nM |  |  |  |  | 442 | 1180 |
| Cc1c2ccc3c1nnn3CCCCCOc1ccc(c3ccccc13)C(=O)N1CCc3ccc(cc3C1)C2CC(=O)O (stereo not shown) [Compound 283] | 450 | 418 | 1.1 nM and 1.7 nM |  |  |  |  |  |  |
| Cc1c2ccc3c1nnn3CCCCCCOc1ccc(cc1)C(=O)N1CCc3ccc(cc3C1)[C@@H]2[C@H](C)C(=O)O [Compound 179] | 113 | 235 | 5.7 nM |  |  |  |  | 91.5 | 208 |
| Cc1c2cnc3c1nnn3CCCCCCc1cccc(c1)C(=O)N1CCc3ccc(cc3C1)C2CC(=O)O (stereo not shown) [Compound 355] |  |  | 9.1 nM and 9.3 nM | 810 | 1300 | 3860 nM | 4700 |  |  |
| Cc1cc2cnc1OCCCCCc1ccc(cc1)C(=O)N1CCc3ccc(cc3C1)[C@H]2[C@@H](C)C(=O)O [Compound 76] |  |  | > 9900 nM |  |  |  | > 10000 |  |  |
| COc1cc2ccc1C(=O)N1CCc3ccc(cc3C1)[C@@H](CC(=O)O)c1cnc3c(nnn3CCCCCC2)c1C [Compound 91] |  |  | 1.9 nM |  |  | 155 nM | 131 |  |  |

| Compound | EC50 [1, 4] [nM] | EC50 [2, 5] [nM] | IC50 [3] | EC50 [1, 6] [nM] | EC50 [1, 7] [nM] | EC50 [2, 8] | EC50 [2, 9] [nM] | EC50 [1, 10] [nM] | EC50 ([2]; BEAS+, read-out: BEAS+ EC50) [nM] |
| --- | --- | --- | --- | --- | --- | --- | --- | --- | --- |
| COc1cc2ccc1C(=O)N1CCc3ccc(cc3C1)C(CC(=O)O)c1cnc3c(nnn3CCCCC2)c1C (stereo not shown) [Compound 144] |  |  | 0.7 nM and 0.6 nM |  |  | 60.2 nM | 32.4 |  |  |
| Cc1cc2ccc1C(=O)N1CCc3ccc(cc3C1)[C@H](CC(=O)O)c1ccc3c(c1)nnn3CCCCCCO2 [Compound 326] |  | 804 | 2.7 nM and 0.8 nM |  |  |  |  |  |  |
| Cc1cc2ccc1C(=O)N1CCc3ccc(cc3C1)C(CC(=O)O)c1ccc3c(nnn3CCCOCCO2)c1C (stereo not shown) [Compound 374] |  |  | 1 nM |  |  | 297 nM | 284 |  |  |
| Cc1c2ccc3c1nnn3CCOCCCc1ccc(c(F)c1)C(=O)N1CCc3ccc(cc3C1)[C@H]2CC(=O)O [Compound 363] |  |  | 9 nM and 8.5 nM |  |  | 711 nM | 682 |  |  |
| O=C(O)CC1c2cnc(nc2)OCCCCCc2cc(F)c(c(F)c2)C(=O)N2CCc3ccc1cc3C2 (stereo not shown) [Compound 246] |  | 992 | 5.3 nM |  |  |  |  |  | 1490 |
| Cc1c2oc3cc(ccc13)OCCCCCn1nnc3c(C)c(ccc31)C(CC(=O)O)c1ccc3c(c1)CN(CC3)C2=O (stereo not shown) [Compound 401] |  | 7110 | 6.1 nM and 6.5 nM |  |  |  |  |  |  |
| O=C(O)CC1c2ccc3c(c2)CN(CC3)C(=O)c2cccc(c2)OCCCCCCn2nnc3cc1ccc32 (stereo not shown) [Compound 403] |  | > 10000 | 146 nM and 192 nM |  |  |  |  |  |  |
| Cc1c2ccc3c1nnn3CCC/C=C/COc1cnc(nc1)C(=O)N1CCc3ccc(cc3C1)C2CC(=O)O (stereo not shown) [Compound 400] |  | 31.6 | 2 nM |  |  |  |  |  | 29.3 |
| O=C(O)CC1c2cnc(nc2)OCCCCc2cc(F)c(c(F)c2)C(=O)N2CCc3ccc1cc3C2 (stereo not shown) [Compound 242] |  | > 10000 | > 1000 nM |  |  |  |  |  |  |
| Cc1c2ccc3c1nnn3CCCOCCOc1cc(F)c(c(F)c1)C(=O)N1CCc3ccc(cc3C1)C2CC(=O)O (stereo not shown) [Compound 368, 2-(20,32-difluoro-34-methyl-22-oxo-14,17-dioxa-8,9,10,23-tetrazahexacyclo[21.5.3.218,21.13,7.06,10.026,30]tetratriaconta-1(29),3(34),4,6,8,18(33),19,21(32),26(30),27-decaen-2-yl)acetic Acid] |  | 114 | 0.1 nM and 0.2 nM |  |  |  |  |  | 140 |
| O=C(O)CC1c2ccc3c(c2)CN(CC3)C(=O)c2ccc(cc2F)CCCCCCn2nnc3c(Cl)c1ccc32 (stereo not shown) [Compound 148] |  |  | 0.3 nM and 0.4 nM and 0.8 nM and 0.7 nM |  |  |  |  |  | 0.3 |
| Cc1c2oc3cc(ccc13)OCCCCCCn1nnc3c(C)c(ccc31)C(CC(=O)O)c1ccc3c(c1)CN(CC3)C2=O (stereo not shown) [Compound 402] |  | > 10000 | 58.7 nM and 57.7 nM |  |  |  |  |  |  |
| COC(=O)CC1c2ccc3c(c2)CN(CC3)C(=O)c2ccc(cc2C)OCCCCCn2nnc3cc1ccc32 (stereo not shown) [Compound 333] |  | > 10000 | 1820 nM and > 1000 nM and 1220 nM |  |  |  |  |  |  |
| O=C(O)CC1c2cnc(nc2)OCCCCc2ccc(cc2Cl)C(=O)N2CCc3ccc1cc3C2 (stereo not shown) [Compound 221] |  | > 10000 | 216 nM |  |  |  |  |  |  |
| O=C(O)CC1c2ccc(nc2)OCCCCCc2ccc(nc2)C(=O)N2CCc3ccc1cc3C2 (stereo not shown) [Compound 193] | 1140 |  | 29.1 nM and 31.5 nM |  |  |  |  | 768 |  |
| Cc1c2ccc(c1C)C(=O)N1CCc3ccc(cc3C1)C(CC(=O)O)c1ccc3c(nnn3CCCCCCO2)c1C (stereo not shown) [Compound 309] | 3.2 |  | < 0.1 nM |  |  |  |  |  |  |
